Square brackets hold non-standard residues; d marks the D form. Peptide text beside a SMILES is read from it. * marks the point of attachment. X1 = CC(C)[C@H](/C=C(\Cl)[C@H](C)N)C(=O)*; X3 = CC(C)[C@H](/C=C(\F)[C@H](C)N)C(=O)*; Dip = N[C@H](C(=O)O)C(c1ccccc1)c1ccccc1; Abu(4,4-F2) = N[C@@H](CC(F)F)C(=O)O; PhLac = O=C(O)[C@@H](O)Cc1ccccc1; Cha = N[C@@H](CC1CCCCC1)C(=O)O; Abu = CC[C@H](N)C(=O)O
Legend:
[1] = target: T1, 3-oxo-5-alpha-steroid 4-dehydrogenase 1 (Homo sapiens, UniProt P18405)
T1 sequence (P18405 whole entry): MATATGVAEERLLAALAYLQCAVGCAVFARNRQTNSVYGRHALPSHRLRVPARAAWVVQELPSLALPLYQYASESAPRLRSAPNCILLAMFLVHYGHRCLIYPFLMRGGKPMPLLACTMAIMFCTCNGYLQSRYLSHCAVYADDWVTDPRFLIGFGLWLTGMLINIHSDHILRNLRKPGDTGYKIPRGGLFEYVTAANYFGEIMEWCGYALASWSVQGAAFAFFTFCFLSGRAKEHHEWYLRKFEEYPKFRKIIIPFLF

[2] = target: T2, 3-oxo-5-alpha-steroid 4-dehydrogenase 2 (Homo sapiens, UniProt P31213)
T2 sequence (P31213 whole entry): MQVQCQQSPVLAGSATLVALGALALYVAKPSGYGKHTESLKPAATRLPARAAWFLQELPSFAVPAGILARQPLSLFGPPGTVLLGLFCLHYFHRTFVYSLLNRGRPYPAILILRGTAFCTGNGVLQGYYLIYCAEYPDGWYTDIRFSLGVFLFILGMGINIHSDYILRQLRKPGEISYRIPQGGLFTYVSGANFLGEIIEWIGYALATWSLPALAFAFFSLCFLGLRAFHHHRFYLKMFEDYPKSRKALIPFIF

[3] = target: Trypanothione reductase (Trypanosoma cruzi) (UniProt P28593)
Chain of Trypanothione reductase (Trypanosoma cruzi) (P28593 whole entry, looked up): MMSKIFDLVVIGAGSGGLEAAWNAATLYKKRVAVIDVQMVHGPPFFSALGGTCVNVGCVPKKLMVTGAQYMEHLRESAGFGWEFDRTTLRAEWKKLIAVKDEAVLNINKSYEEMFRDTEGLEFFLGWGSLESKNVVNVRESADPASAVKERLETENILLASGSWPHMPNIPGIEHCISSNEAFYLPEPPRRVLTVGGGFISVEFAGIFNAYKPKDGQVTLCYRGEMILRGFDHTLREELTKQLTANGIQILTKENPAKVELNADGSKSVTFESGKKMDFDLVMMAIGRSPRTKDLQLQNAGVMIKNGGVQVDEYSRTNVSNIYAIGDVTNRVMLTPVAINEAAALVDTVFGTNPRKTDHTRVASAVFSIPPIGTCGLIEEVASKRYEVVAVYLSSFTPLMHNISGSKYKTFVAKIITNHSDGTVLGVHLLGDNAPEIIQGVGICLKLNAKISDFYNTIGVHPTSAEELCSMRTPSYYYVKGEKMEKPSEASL

[4] = target: Delta-type opioid receptor (Homo sapiens, UniProt P41143)
Chain of Delta-type opioid receptor (P41143 whole entry): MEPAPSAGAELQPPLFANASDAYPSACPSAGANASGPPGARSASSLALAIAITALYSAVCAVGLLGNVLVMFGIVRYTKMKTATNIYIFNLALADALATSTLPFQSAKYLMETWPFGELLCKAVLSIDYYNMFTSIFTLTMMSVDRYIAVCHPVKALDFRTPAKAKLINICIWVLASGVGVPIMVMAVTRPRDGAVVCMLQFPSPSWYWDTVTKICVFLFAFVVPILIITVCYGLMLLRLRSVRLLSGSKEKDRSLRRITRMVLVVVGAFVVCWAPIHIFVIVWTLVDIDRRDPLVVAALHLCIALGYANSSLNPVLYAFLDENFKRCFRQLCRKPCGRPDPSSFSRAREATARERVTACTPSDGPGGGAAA

physchem [5] = conditions: buffer, pH 7.4
[6] = target: T3, Parathyroid hormone/parathyroid hormone-related peptide receptor (Homo sapiens, UniProt Q03431)
T3 sequence (Q03431 whole entry): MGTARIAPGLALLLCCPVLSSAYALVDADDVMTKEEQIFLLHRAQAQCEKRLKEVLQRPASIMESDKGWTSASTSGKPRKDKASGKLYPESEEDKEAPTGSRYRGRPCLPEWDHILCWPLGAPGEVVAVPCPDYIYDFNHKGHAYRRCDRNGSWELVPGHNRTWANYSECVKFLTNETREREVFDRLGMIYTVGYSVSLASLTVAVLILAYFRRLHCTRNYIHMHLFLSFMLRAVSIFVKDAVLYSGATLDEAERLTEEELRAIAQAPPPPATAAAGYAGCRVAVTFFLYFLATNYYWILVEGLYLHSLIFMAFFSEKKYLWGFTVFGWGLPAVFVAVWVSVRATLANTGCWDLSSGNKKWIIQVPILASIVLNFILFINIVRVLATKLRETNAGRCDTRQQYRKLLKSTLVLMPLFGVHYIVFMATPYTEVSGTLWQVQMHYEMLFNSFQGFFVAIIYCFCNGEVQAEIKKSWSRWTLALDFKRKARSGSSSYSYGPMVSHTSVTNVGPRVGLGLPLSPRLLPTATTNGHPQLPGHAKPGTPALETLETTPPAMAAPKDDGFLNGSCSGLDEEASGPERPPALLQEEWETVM

[7] = target: T3, Parathyroid hormone/parathyroid hormone-related peptide receptor; experiment: biochemical
Carbonic anhydrase 2 = Carbonic anhydrase 2 (Bos taurus, UniProt P00921)
Chain of Carbonic anhydrase 2 (P00921 whole entry): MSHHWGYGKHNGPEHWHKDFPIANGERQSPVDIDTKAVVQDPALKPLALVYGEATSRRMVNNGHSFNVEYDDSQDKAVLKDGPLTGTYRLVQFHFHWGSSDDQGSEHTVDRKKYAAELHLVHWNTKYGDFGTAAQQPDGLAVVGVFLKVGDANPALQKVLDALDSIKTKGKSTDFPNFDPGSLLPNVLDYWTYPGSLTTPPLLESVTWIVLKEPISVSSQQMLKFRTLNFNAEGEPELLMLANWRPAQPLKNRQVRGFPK

physchem [8] = experiment: physchem
NS3 protease = NS3 protease (Hepacivirus C, UniProt C1KIQ2); parameters: species or system Hepacivirus hominis
Chain of NS3 protease (C1KIQ2 whole entry): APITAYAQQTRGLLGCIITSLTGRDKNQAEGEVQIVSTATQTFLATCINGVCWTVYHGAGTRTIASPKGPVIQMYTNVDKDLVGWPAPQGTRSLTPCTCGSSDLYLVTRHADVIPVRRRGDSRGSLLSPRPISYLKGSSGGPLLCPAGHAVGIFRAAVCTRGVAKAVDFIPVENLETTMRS

Steryl-sulfatase = target: T4, Steryl-sulfatase (Homo sapiens, UniProt P08842)
T4 sequence (P08842 whole entry): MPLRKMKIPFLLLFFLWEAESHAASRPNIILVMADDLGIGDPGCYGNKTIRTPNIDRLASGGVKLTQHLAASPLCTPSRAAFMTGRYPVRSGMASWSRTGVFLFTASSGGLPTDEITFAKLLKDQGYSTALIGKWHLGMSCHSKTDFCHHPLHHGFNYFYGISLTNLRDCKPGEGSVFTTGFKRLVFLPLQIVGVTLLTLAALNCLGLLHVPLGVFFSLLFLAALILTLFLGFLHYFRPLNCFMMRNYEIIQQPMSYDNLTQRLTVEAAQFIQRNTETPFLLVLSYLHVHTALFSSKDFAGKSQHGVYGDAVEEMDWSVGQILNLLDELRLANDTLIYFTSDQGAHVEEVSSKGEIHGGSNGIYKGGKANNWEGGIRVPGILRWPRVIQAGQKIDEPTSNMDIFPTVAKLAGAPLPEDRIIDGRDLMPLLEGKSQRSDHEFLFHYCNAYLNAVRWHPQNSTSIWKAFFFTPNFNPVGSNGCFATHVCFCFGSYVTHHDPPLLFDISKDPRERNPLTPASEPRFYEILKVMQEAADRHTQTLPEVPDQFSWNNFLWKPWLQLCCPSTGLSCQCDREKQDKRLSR

[9] = target: T1, 3-oxo-5-alpha-steroid 4-dehydrogenase 1; remark: listed apart in the source
[10] = target: T5, 3-oxo-5-alpha-steroid 4-dehydrogenase 1 (Rattus norvegicus, UniProt P24008)
T5 sequence (P24008 whole entry): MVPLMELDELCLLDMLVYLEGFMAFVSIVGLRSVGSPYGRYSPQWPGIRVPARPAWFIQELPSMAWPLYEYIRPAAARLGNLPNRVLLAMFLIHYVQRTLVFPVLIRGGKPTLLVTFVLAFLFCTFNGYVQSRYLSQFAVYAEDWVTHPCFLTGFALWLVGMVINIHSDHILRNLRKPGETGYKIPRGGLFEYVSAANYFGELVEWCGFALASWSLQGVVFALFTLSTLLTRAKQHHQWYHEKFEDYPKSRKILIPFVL

[11] = target: T6, 3-oxo-5-alpha-steroid 4-dehydrogenase 2 (Rattus norvegicus, UniProt P31214)
T6 sequence (P31214 whole entry): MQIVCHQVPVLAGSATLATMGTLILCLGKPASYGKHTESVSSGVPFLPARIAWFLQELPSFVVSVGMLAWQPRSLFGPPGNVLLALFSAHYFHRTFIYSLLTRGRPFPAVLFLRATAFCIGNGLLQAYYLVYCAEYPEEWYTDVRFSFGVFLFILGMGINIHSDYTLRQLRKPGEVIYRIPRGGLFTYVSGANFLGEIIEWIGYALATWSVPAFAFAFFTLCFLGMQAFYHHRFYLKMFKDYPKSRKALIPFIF

## C[C@]12C=CC(=O)N[C@@H]1CC[C@@H]1[C@@H]2CC[C@]2(C)[C@@H](C(=O)Nc3cc(C(F)(F)F)ccc3C(F)(F)F)CC[C@@H]12 [DUTASTERIDE]
[1]
  IC50: 4 nM
[2]
  IC50: < 0.1 nM

## C[N+](C)(CCCNc1cc(F)ccc1Nc1ccc(C(F)(F)F)cc1)Cc1ccc(Cl)c(Cl)c1
[3]
  Kic: 24 µM

## CC(C)C[C@H](NC(=O)[C@@H](/C=C(\F)CNC(=O)CNC(=O)[C@@H](N)Cc1ccc(O)cc1)Cc1ccccc1)C(=O)O
[4]
  Ki: 43 nM
Physchem [5]
  logD: -0.11

## C[N+](C)(CCCNc1cc(F)ccc1Nc1ccc(S(F)(F)(F)(F)F)cc1)Cc1ccc(Cl)c(Cl)c1
[3]
  Kic: 28 µM

## CC[C@H](C)[C@H](NC(=O)[C@H](CCC(=O)O)NC(=O)[C@H](CO)NC(=O)[C@@H](/C=C(\Cl)[C@H](C)N)C(C)C)C(=O)N[C@@H](CCC(N)=O)C(=O)N[C@@H](CC(C)C)C(=O)N[C@@H](CCSC)C(=O)N[C@@H](Cc1c[nH]cn1)C(=O)N[C@@H](CC(N)=O)C(=O)N[C@@H](CC(C)C)C(=O)NCC(=O)N[C@@H](CCCCN)C(=O)N[C@@H](Cc1c[nH]cn1)C(=O)N[C@@H](CC(C)C)C(=O)N[C@@H](CC(N)=O)C(=O)N[C@@H](CO)C(=O)N[C@@H](CCSC)C(=O)N[C@@H](CCC(=O)O)C(=O)N[C@@H](CCCN=C(N)N)C(=O)N[C@H](C(=O)N[C@@H](CCC(=O)O)C(=O)N[C@@H](Cc1c[nH]c2ccccc12)C(=O)N[C@@H](CC(C)C)C(=O)N[C@@H](CCCN=C(N)N)C(=O)N[C@@H](CCCCN)C(=O)N[C@@H](CCCCN)C(=O)N[C@@H](CC(C)C)C(=O)N[C@@H](CCC(N)=O)C(=O)N[C@@H](CC(=O)O)C(=O)N[C@H](C(=O)N[C@@H](Cc1c[nH]cn1)C(=O)N[C@@H](CC(N)=O)C(=O)N[C@@H](Cc1ccccc1)C(=O)N[C@H](C(=O)N[C@@H](C)C(N)=O)C(C)C)C(C)C)C(C)C (X1-SEIQLMHNLGKHLNSMERVEWLRKKLQDVHNFVA-NH2)
[6]
  EC50: 7.9 nM
[7]
  Kd: 1.26 nM

## NS(=O)(=O)Cc1ccccc1 [PHENYLMETHANESULFONAMIDE]
Carbonic anhydrase 2
  IC50: 630 nM
Physchem [8]
  pKa: 10.5

## NS(=O)(=O)C(F)c1ccccc1 (stereo not drawn)
Carbonic anhydrase 2
  IC50: 220 nM
Physchem [8]
  pKa: 8.8

## CC(=O)N[C@@H](CC(=O)O)C(=O)N[C@@H](CCC(=O)O)C(=O)N[C@H](C(=O)N[C@@H](CCC(=O)O)C(=O)N[C@@H](CC1CCCCC1)C(=O)N[C@@H](CC(F)F)C(=O)O)C(c1ccccc1)c1ccccc1 (Ac-DE[Dip]E[Cha][Abu(4,4-F2)]-OH)
NS3 protease
  Ki: 30 nM

## C[C@]12CC[C@@H]3c4ccc(CS(N)(=O)=O)cc4CC[C@H]3[C@@H]1CCC2=O
Steryl-sulfatase
  Ki: 350 µM

## CC(=O)N[C@@H](CC(=O)O)C(=O)N[C@@H](CCC(=O)O)C(=O)N[C@H](C(=O)N[C@@H](CCC(=O)O)C(=O)N[C@@H](CC1CCCCC1)C(=O)N[C@@H](CS)C(=O)O)C(c1ccccc1)c1ccccc1 (Ac-DE[Dip]E[Cha]C-OH)
NS3 protease
  Ki: 40 nM

## CC[C@H](C)[C@H](NC(=O)[C@H](CCC(=O)O)NC(=O)[C@H](CO)NC(=O)[C@@H](/C=C(\F)[C@H](C)N)C(C)C)C(=O)N[C@@H](CCC(N)=O)C(=O)N[C@@H](CC(C)C)C(=O)N[C@@H](CCSC)C(=O)N[C@@H](Cc1c[nH]cn1)C(=O)N[C@@H](CC(N)=O)C(=O)N[C@@H](CC(C)C)C(=O)NCC(=O)N[C@@H](CCCCN)C(=O)N[C@@H](Cc1c[nH]cn1)C(=O)N[C@@H](CC(C)C)C(=O)N[C@@H](CC(N)=O)C(=O)N[C@@H](CO)C(=O)N[C@@H](CCSC)C(=O)N[C@@H](CCC(=O)O)C(=O)N[C@@H](CCCN=C(N)N)C(=O)N[C@H](C(=O)N[C@@H](CCC(=O)O)C(=O)N[C@@H](Cc1c[nH]c2ccccc12)C(=O)N[C@@H](CC(C)C)C(=O)N[C@@H](CCCN=C(N)N)C(=O)N[C@@H](CCCCN)C(=O)N[C@@H](CCCCN)C(=O)N[C@@H](CC(C)C)C(=O)N[C@@H](CCC(N)=O)C(=O)N[C@@H](CC(=O)O)C(=O)N[C@H](C(=O)N[C@@H](Cc1c[nH]cn1)C(=O)N[C@@H](CC(N)=O)C(=O)N[C@@H](Cc1ccccc1)C(=O)N[C@H](C(=O)N[C@@H](C)C(N)=O)C(C)C)C(C)C)C(C)C (X3-SEIQLMHNLGKHLNSMERVEWLRKKLQDVHNFVA-NH2)
[6]
  EC50: 4.4 nM
[7]
  Kd: 1.26 nM

## CC(C)C[C@H](NC(=O)[C@H](Cc1ccccc1)NC(=S)CNC(=O)CNC(=O)[C@@H](N)Cc1ccc(O)cc1)C(=O)O
[4]
  Ki: 47 nM

## CC(C)C[C@H](NC(=O)[C@H](Cc1ccccc1)OC(=O)CNC(=O)CNC(=O)[C@@H](N)Cc1ccc(O)cc1)C(=O)O (H-YGG[PhLac]L-OH)
[4]
  Ki: 34 nM

## CC[C@H](NC(=O)[C@H](CC1CCCCC1)NC(=O)[C@H](CCC(=O)O)NC(=O)[C@@H](NC(=O)[C@H](CCC(=O)O)NC(=O)[C@H](CC(=O)O)NC(C)=O)C(c1ccccc1)c1ccccc1)C(=O)O (Ac-DE[Dip]E[Cha][Abu]-OH)
NS3 protease
  Ki: 700 nM

## CC(C)(C)c1ccc(Nc2ccc(F)cc2NCCC[N+](C)(C)Cc2ccc(Cl)c(Cl)c2)cc1
[3]
  Kic: 84 µM

## NS(=O)(=O)C(F)(F)c1ccccc1 [PHENYLDIFLUOROMETHANESULFONAMIDE]
Carbonic anhydrase 2
  IC50: 58 nM
Physchem [8]
  pKa: 7.7

## CC(NC(=O)[C@H]1CC[C@H]2[C@@H]3CC[C@H]4NC(=O)C=C[C@]4(C)[C@H]3CC[C@]12C)(c1ccccc1)C(F)(F)F (stereo partly drawn)
[1]
  IC50: 36 nM
[9]
  IC50: 16 nM
[10]
  IC50: 15 nM
[11]
  IC50: 15 nM

## C[C@]12C=CC(=O)N[C@@H]1CC[C@@H]1[C@@H]2CC[C@]2(C)[C@@H](C(=O)NC(c3ccccc3)(C(F)(F)F)C(F)(F)F)CC[C@@H]12
[1]
  IC50: 3.9 nM
[9]
  IC50: 20 nM
[10]
  IC50: 34 nM
[11]
  IC50: 34 nM

## CC(C)C[C@H](NC(=O)[C@@H](/C=C/CNC(=O)CNC(=O)[C@@H](N)Cc1ccc(O)cc1)Cc1ccccc1)C(=O)O
[4]
  Ki: 587 nM
Physchem [5]
  logD: -0.07

Reference: ChEMBL document CHEMBL4371002 (J Med Chem, 2018)
